Like-named read-outs stand apart in the source and are kept apart here.
Tests used:
5-HT2CR [1] = target: T1, 5-HT2CR (Homo sapiens (Human), UniProt P28335); test: Intracellular calcium (Cai++) release assay, FLIPR Calcium 4, U2OS cells stably expressing 5-HT2CR; assay type: cell-based; details: for Emax: % Cai++ release obtained with 1 μM of WAY163909 (1), U2OS cells expressing human 5-HT2CR; for EC50: Cai++ release, U2OS cell line stably expressing human 5-HT2CR, mean ± SEM, at least three independent experiments
T1 sequence (P28335 33-458): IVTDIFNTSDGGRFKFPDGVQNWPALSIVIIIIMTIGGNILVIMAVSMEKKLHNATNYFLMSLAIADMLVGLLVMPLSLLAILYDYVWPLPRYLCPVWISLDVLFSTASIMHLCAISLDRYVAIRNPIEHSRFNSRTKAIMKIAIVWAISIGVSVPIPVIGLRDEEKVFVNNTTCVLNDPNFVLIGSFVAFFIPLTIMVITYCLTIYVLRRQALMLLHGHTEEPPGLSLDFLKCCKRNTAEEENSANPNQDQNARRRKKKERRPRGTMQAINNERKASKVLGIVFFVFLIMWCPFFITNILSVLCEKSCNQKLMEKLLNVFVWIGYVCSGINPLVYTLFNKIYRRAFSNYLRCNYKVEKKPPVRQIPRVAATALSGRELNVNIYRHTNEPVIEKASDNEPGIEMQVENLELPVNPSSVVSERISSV
Method: The PathHunter® U2OS HTR2C β-Arrestin cell line (5-HT2cR-U2OS; DiscoveRx) stably express the nonedited human 5-HT2CR isoform (h5-HT2CR). The 5-HT2CR-U2OS cells were grown in Assay Complete™ U2OS Medium 31 (DiscoveRx) at 37° C., 5% CO2 and 85% relative humidity according to manufacturer's recommendations utilizing AssayComplete™ Cell Detachment Reagent (DiscoveRx). Cells were passaged at 70-80% confluence and all experiments were conducted using cells in log phase growth.
The ability of the molecules to act as agonists to induce 5-HT2CR-mediated intracellular calcium (Cai^++) release was conducted in an U2OS cell line stably expressing the human 5-HT2CR.
Intracellular calcium (Cai^++) release was monitored using the FLIPR Calcium 4 Assay Kit (Molecular Devices) according to previously published protocols with minor modifications. See, e.g., Shashack, M. J., et al., ACS Chem Neurosci. 2 (11), 640-644 (2011); Seitz, P. K.; Bremer, N. M., et al., BMC Neurosci. 13, 25 (2012).
Cells were plated at 5,000-7,000 cells/well in Assay Complete™ Cell Plating Reagent 16 (DiscoveRx) in black-sided, clear bottomed 96-well tissue culture plates and allowed to adhere overnight. Medium was removed and replaced with 40 μl Hank's balanced salt solution without calcium, magnesium and phenol red (HBSS; Corning) plus 40 μl Calcium 4 dye solution in Buffer B supplemented with 2.5 mM probenecid (Sigma-Aldrich) to inhibit extracellular dye transport. Plates were incubated for 60 min at 37° C. followed by 30 min at room temperature in the dark.
Fluorescence (λex=485 nm, λem=525 nm) was measured using a FlexStation3 (Molecular Devices). Baseline was established for 17 secs before addition of 20 μl vehicle (HBSS without calcium or magnesium) or 5× concentrated compound. […] Maximum peak height was determined using FlexStation software (SoftMax Pro 5.4). After the final readings, cells were fixed in 2% paraformaldehyde overnight.
Peak responses from each well were normalized to total cell mass as determined with crystal violet staining. See e.g., Ding, C. et al., ACS Chem. Neurosci 3 (7), 538-545 (2012). […] Potency of the compounds was determined using the EC50 (concentration of compound required to achieve half-maximal response). The EC50 values were determined using 4-parameter nonlinear regression analysis and calculated from at least three independent experiments, each conducted in triplicate, and are presented as mean±SEM. Ratkowsky, D. A., et al., Biometrics 42, 575-582 (1986).

5-HT2AR = 5-HT2AR (Homo sapiens (Human), UniProt P28223); test: CEREP radioligand displacement of [125I]-(±)-DOI at 5-HT2AR; details: read-out: mean percent inhibition of control specific binding, 5-HT2AR
5-HT2AR, sequence (P28223 whole entry): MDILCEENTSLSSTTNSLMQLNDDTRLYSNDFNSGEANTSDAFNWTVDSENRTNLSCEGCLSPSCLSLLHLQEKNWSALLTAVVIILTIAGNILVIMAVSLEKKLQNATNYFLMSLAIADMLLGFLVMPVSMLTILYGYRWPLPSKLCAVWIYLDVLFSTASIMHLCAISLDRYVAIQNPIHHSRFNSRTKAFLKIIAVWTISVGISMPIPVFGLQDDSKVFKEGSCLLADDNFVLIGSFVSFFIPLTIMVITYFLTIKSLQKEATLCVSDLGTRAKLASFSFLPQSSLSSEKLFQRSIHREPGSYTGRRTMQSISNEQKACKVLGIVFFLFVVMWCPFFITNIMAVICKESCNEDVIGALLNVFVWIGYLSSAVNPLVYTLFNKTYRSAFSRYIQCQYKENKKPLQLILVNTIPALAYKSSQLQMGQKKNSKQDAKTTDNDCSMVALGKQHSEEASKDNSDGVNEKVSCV
Method: (§1) Compounds were submitted to CEREP to determine receptor selectivity at the 5-HT2 Compounds were tested at a single concentration of 10 μM in duplicate to determine their ability to displace [^125I]-(±)-DOI. The data are presented as mean percent inhibition of control specific binding for compound tested at each receptor subtype (Table 2). Significant inhibition is considered >50%; 25-50% inhibition is indicative of weak to moderate effects.

5-HT2CR [2] = target: T1, 5-HT2CR; test: CEREP radioligand displacement of [125I]-(±)-DOI at 5-HT2CR; details: duplicate, read-out: mean percent inhibition of control specific binding, 5-HT2CR
Method: as §1

5-HT2BR = 5-HT2BR (Homo sapiens (Human), UniProt P41595); test: CEREP radioligand displacement of [125I]-(±)-DOI at 5-HT2BR; details: duplicate, read-out: mean percent inhibition of control specific binding, 5-HT2BR
5-HT2BR, sequence (P41595 whole entry): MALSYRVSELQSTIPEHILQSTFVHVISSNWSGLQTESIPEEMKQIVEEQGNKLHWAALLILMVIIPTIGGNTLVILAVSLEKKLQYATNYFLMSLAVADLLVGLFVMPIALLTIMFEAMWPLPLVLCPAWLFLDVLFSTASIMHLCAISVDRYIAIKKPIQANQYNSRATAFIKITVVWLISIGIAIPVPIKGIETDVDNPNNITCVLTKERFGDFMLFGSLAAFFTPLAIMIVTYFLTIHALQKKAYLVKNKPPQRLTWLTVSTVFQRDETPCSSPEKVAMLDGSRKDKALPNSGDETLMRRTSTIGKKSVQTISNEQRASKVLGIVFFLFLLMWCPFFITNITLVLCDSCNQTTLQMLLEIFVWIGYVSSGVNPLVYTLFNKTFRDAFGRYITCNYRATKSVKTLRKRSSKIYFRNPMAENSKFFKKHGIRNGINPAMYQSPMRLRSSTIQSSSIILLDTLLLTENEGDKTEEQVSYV
Method: as §1

c1cc2c3c(c1)[C@H]1CCC[C@H]1N3CCNC2 (racemic) [Compound 1, (7bR,10aR)-1,2,3,4,8,9,10,10a-octahydro-7bH-cyclopenta-[b][1,4]diazepino[6,7,1hi]indole, reference compound]
Emax (5-HT2CR [1]): 100%

COc1cc2c3c(c1)[C@H]1CCC[C@H]1N3CCNC2 (racemic) [Compound 17]
Emax (5-HT2CR [1]): 95.9 ± 1.5%
EC50 (5-HT2CR [1]): 1480 ± 238 nM

COc1ccc2c3c1C1CCCC1N3CCNC2 (racemic) [Compound 18, 7-methoxy-2,3,4,7b,8,9,10,10a-octahydro-1H-cyclopenta[b][1,4]diazepino[6,7,1-hi]indole]
Emax (5-HT2CR [1]): 103 ± 4.6%
EC50 (5-HT2CR [1]): 2.4 ± 0.4 nM

Oc1ccc2c3c1[C@H]1CCC[C@H]1N3CCNC2 (racemic) [Compound 35]
Emax (5-HT2CR [1]): 95.9 ± 2.6%
EC50 (5-HT2CR [1]): 119 ± 11.5 nM

COc1ccc2c3c1[C@H]1CCC[C@H]1N3CCNC2 (racemic) [Compound 36, 7-methoxy-2,3,4,7b,8,9,10,10a-octahydro-1H-cyclopenta[b][1,4]diazepino[6,7,1-hi]indole]
Emax (5-HT2CR [1]): 105 ± 6.1%
EC50 (5-HT2CR [1]): 1.2 ± 0.3 nM
inhibition at 10 µM (5-HT2AR): 86.5%
inhibition at 10 µM (5-HT2CR [2]): 100%
inhibition at 10 µM (5-HT2BR): 98.6%

C#CCOCCOc1ccc2c3c1C1CCCC1N3CCNC2 (racemic) [Compound 44, 7-(2-(Prop-2-ynyloxy)ethoxy)-2,3,4,7b,8,9,10,10a-octahydro-1H-cyclopenta[b][1,4]diazepino[6,7,1-hi]indole]
Emax (5-HT2CR [1]): 97.2 ± 2.3%
EC50 (5-HT2CR [1]): 51.9 ± 9.6 nM

C#CCOCCOCCOc1ccc2c3c1C1CCCC1N3CCNC2 (racemic) [Compound 45, 7-(2-(2-(prop-2-ynyloxy)ethoxy)ethoxy)-2,3,4,7b,8,9,10,10a-octahydro-1H-cyclopenta[b][1,4]diazepino[6,7,1-hi]indole]
Emax (5-HT2CR [1]): 99.3 ± 2.2%
EC50 (5-HT2CR [1]): 218 ± 53.1 nM
inhibition at 10 µM (5-HT2AR; 10 μM, duplicate, displacement of [125I]-(±)-DOI): 67.1%
inhibition at 10 µM (5-HT2CR [2]): 99.6%
inhibition at 10 µM (5-HT2BR): 67.7%

COc1ccc2c3c1[C@@H]1CCC[C@@H]1N3CCNC2 (stereo in doubt) [Compound 37, 7-methoxy-2,3,4,7b,8,9,10,10a-octahydro-1H-cyclopenta[b][1,4]diazepino[6,7,1-hi]indole]
Emax (5-HT2CR [1]): 97.6 ± 4.7%
EC50 (5-HT2CR [1]): 72.4 ± 14.5 nM
inhibition at 10 µM (5-HT2AR): 22.8%
inhibition at 10 µM (5-HT2CR [2]): 91.5%
inhibition at 10 µM (5-HT2BR): 4.8%

OCCc1c[nH]c2ccc(O)cc12 [Compound 27, reference compound]
Emax (5-HT2CR [1]): 100%
EC50 (5-HT2CR [1]): 0.33 ± 0.1 nM

C#CCOCCOCCOCCOc1ccc2c3c1C1CCCC1N3CCNC2 (stereo not shown) [Compound 46, 7-(2-(2-(2-(prop-2-ynyloxy)ethoxy)ethoxy)ethoxy)-2,3,4,7b,8,9,10,10a-octahydro-1H-cyclopenta[b][1,4]diazepino[6,7,1-hi]indole]
Emax (5-HT2CR [1]): 95.2 ± 2.3%
EC50 (5-HT2CR [1]): 575 ± 112 nM

Source: patent US10544152B2, “5-HT2CR agonist analogs” (The Board of Regents of The University of Texas System, priority 2017, dated 2020)
